{
  "source": "paper PMC12376458",
  "about": "“Multi-omics analysis reveals ACOT1 as the key target of piperine in Piper Longum-mediated gastric cancer treatment” (Chinese Medicine, 2025)",
  "target": "T1, ACOT1 (Acyl-CoA Thioesterase 1) (Homo sapiens, UniProt Q86TX2)",
  "T1 construct": "endogenous protein in NP-40 cell lysate, western blot read-out; mouse MFC used for xenograft",
  "T1 sequence (Q86TX2 2-421)": "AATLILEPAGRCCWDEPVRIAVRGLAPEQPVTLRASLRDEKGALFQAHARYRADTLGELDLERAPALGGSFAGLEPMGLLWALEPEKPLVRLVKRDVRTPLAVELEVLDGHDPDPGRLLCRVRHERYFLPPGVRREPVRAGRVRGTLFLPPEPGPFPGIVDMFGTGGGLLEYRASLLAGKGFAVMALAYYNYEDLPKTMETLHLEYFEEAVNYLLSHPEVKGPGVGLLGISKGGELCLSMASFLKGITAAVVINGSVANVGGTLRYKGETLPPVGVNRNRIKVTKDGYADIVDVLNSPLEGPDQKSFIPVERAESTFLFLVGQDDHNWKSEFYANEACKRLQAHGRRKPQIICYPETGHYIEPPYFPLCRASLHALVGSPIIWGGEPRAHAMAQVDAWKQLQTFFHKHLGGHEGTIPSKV",
  "test": "cellular thermal shift assay (CETSA) in cell lysate, western blot",
  "format": "biochemical",
  "conditions": "60 μM piperine vs DMSO, 4 °C 5 h, then 35–60 °C for 3 min",
  "data": [
    {"smiles": "O=C(/C=C/C=C/c1ccc2c(c1)OCO2)N1CCCCC1", "note": "[piperine]", "values": [
      {"measurement": "cellular thermal shift assay (CETSA) in cell lysate, western blot", "result": "CETSA experimental results showed that piperine treatment enhanced the thermal stability of ACOT1"}
    ]}
  ]
}
